Assay results as given in PubChem BioAssay AID1322 (NMMLSC, 2008).
Active and inactive are the calls of the source. The rule behind the calls is not given here.

Target: Bcl-2-like protein 1 (Homo sapiens) (UniProt Q07817)
Assay: Bcl-XL binding to Bim peptide disruption – biochemical, multiplexed, bead flow cytometry, human Bcl-XL, dose response (AID 1322); for inhibition: test concentration not given here
Settings: Bead-based flow cytometry, MCF; for inhibition: hits give high values

Bcl-2-like protein 1 (Homo sapiens), sequence (Q07817 whole entry, looked up): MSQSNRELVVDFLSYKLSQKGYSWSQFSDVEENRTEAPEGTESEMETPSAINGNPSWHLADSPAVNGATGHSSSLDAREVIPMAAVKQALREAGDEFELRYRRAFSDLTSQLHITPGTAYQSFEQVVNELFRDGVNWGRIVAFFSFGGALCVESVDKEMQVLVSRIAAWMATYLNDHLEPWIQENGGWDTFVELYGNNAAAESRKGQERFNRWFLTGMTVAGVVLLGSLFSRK

Compound	outcome	inhibition
Nc1cccc(-c2cn3cccnc3n2)c1	inactive	–
CCn1c(C)c(/C=N/Nc2nc3ccccc3s2)c2ccccc21	–	inactive
O=C(NCCN1CCOCC1)c1cc(Cl)ccc1[N+](=O)[O-]	–	inactive
O=C1C(Cl)=C(Nc2ccccc2O)C(=O)N1c1ccccc1	–	inactive
COc1ccc(C2CC(=O)C3=C(C2)Nc2ccccc2NC3c2coc3ccccc3c2=O)cc1OC (centres undefined)	–	inactive
COc1ccccc1OCc1ccc(C(=O)Nc2ccccc2F)cc1	–	inactive
Clc1ccc2c(N/N=C/c3ccccc3Br)ccnc2c1	–	inactive
Cc1ccc(Nc2nc(-c3c(C)nc4ncccn34)cs2)cc1	–	inactive
N#Cc1cccc(N=c2ssnc2Cl)c1	–	inactive
C#CCOCCOCCOCCNc1nc(N2CCN(C(=O)[C@H]([C@@H](C)CC)n3cc([C@@H](N)CC(C)C)nn3)CC2)nc(N2CCN(C(=O)[C@H](Cc3cc4ccccc4[nH]3)n3cc([C@@H](N)Cc4ccc(O)cc4)nn3)CC2)n1	–	inactive
CC(C)c1ccc(C2CC(c3ccc(Br)cc3)=NN2C(N)=S)cc1 (centres undefined)	inactive	–
O=C1NC(=O)C(=Cc2ccc(-c3cc(Cl)ccc3[N+](=O)[O-])o2)C(=O)N1	inactive	–
O=C(c1cnccn1)N(Cc1cccs1)C1(C(=O)NC2CCCCC2)CCCCC1	inactive	–
CCOC(=O)CSC1=NC(=O)/C(=C/c2ccc(Br)cc2)S1	inactive	–
c1ccc(-c2nc(N3CCOCC3)s[n+]2-c2ccccc2)cc1	–	inactive
O=[N+]([O-])c1ccc(N2CCN(c3ccc(O)cc3)CC2)c(Cl)c1	–	inactive
O=C(c1ccc(CNS(=O)(=O)c2ccc(Br)cc2)cc1)N1CCCC1	–	inactive
COc1ccc(S(=O)(=O)NCCOc2cccc3cccnc23)cc1OC	inactive	–
COc1ccc(NC(=O)/C(Cl)=C(/Cl)S(=O)Cc2ccccc2)cn1 (centres undefined)	–	inactive
CN1C2C=C3C(C#N)=C(N)C(C#N)(C#N)[C@@H](c4ccsc4)[C@@H]3C1CC2 (some centres undefined)	–	inactive
Cc1cccc(N=C2NC(=O)/C(=C/C=C/c3ccco3)S2)c1C	–	inactive
CCOc1cc(S(=O)(=O)N2CCCCC2)ccc1F	–	inactive
CCN1CCN(CC(=O)c2c[nH]c3ccc(C)cc23)CC1	–	inactive
COC(=O)/C(=C/c1ccc(F)cc1)NC(C)=O	–	inactive
Cc1cc(N)ccc1N1CCCC1	–	inactive

Compound	outcome	inhibition
CC(C)CCN1CCN(Cc2cccc3cccnc23)CC1CCO (centres undefined)	inactive	–
Cc1noc(C)c1CN1C(=O)NC(Cc2ccccc2)(Cc2ccccc2)C1=O	–	inactive
CCN1CCN(c2ccc(NC(=O)c3ccc4c(c3)[nH]c(=O)n4Cc3ccc(OC)cc3)cc2)CC1	–	inactive
O=C(NCCCN1CCCC1=O)NC1CCCCC1	–	inactive
O=C(O)c1ccccc1NSc1ccccc1[N+](=O)[O-]	inactive	–
C=CCSc1nc(N)c2c(C)c(C)sc2n1	–	inactive
CNC(CC(=O)c1ccc([N+](=O)[O-])cc1)C(Cl)(Cl)Cl (centres undefined)	inactive	–
CCOc1ccc(C(=O)Nc2nnc(NC(=S)Nc3ccccc3)s2)cc1	–	inactive
S=C(Nc1ccccc1)N1CCn2cccc2C1c1cccnc1 (centres undefined)	–	inactive
CCOC(=O)c1nc(Nc2ccc(Nc3ccccc3)cc2)c2ccccc2n1	–	inactive
O=C(NCCc1ccccc1)c1ccc2nc(-c3ccco3)c(-c3ccco3)nc2c1	–	inactive
Cc1cc(-c2csc(N)n2)c(C)n1C	–	inactive
O=[N+]([O-])c1ccc(-c2cn(-c3ccc(Cl)cc3)c(=S)[nH]2)cc1	–	inactive
CCN(CC)CCN(C(=O)c1ccc(N2C(=O)CCC2=O)cc1)c1nc2cc3c(cc2s1)OCCO3	inactive	–
Cc1cc(-c2cc(-c3ccc(Cl)cc3)nc(N)c2C#N)co1	–	inactive
CC1CC2=C(NC(=S)NC2c2ccccc2F)/C(=C/c2ccccc2F)C1 (centres undefined)	inactive	–
COC(=O)c1cc(OC)c(OC)cc1NC(=O)Nc1cccc(C(C)=O)c1	–	inactive
CC(C(=O)Nc1ccc([N+](=O)[O-])cc1)N1CCN(C/C=C/c2ccccc2)CC1 (centres undefined)	–	inactive
O=C(COc1ccccc1)Nc1ccc2c(c1)Cc1cc(NC(=O)COc3ccccc3)ccc1-2	–	inactive
CN=c1scc(C)n1/N=C/c1ccc(O)c(O)c1O	–	inactive
O=C(CCCN1C(=O)c2cccc3cccc(c23)C1=O)N1CCN(c2ccccn2)CC1	inactive	–
Cc1cc(/C=C(/C#N)C(=O)Nc2ccc(Cl)cc2)c(C)n1-c1cccnc1	–	inactive
O=C(c1ccccc1)c1ccc2nc(-c3ccco3)c(-c3ccco3)nc2c1	inactive	–
CN1/C(=C\C(=O)Nc2ccc(Cl)cc2)C(C)(C)c2ccccc21	–	inactive
COc1cc(NC(=O)c2ccc3c(c2)OCO3)ccc1NC(=O)c1ccco1	–	inactive

Compound	outcome	inhibition
O=C(OCC(=O)c1ccc[nH]1)c1ccccc1	–	inactive
CNC(=O)c1sc(-c2ccccn2)nc1C	–	inactive
O=C(O)C1=C[C@H](C2CC2)C[C@H](OCCCCO)O1	–	inactive
C/C(=N\NC(=O)COc1ccc(C#N)cc1)c1ccccc1OC(F)F	–	inactive
Cc1cccc(-c2nnc3n2N=C(c2ccccc2)CS3)c1	–	inactive
Cc1cccc(C(=O)N2CCC(c3nc(-c4ccc(S(=O)(=O)N5CCOCC5)cc4)no3)CC2)c1	–	inactive
C/C(=N\NC(=O)Cn1nc(C)c([N+](=O)[O-])c1C)c1ccc(O)cc1	–	inactive
O=C(O)c1ccc(NC2=C/C(=N/S(=O)(=O)c3ccccc3)c3ccccc3C2=O)cc1	–	inactive
COc1ccc(CC(=O)Nc2ccc3nc(C)sc3c2)cc1OC	–	inactive
CS(=O)(=O)NN1C(=O)c2ccccc2NC1c1cccc2cccnc12 (centres undefined)	–	inactive
O=C(NCc1ccco1)C1CC2CCC1C2 (centres undefined)	–	inactive
O=C1C(Cl)=C(N2CCN(c3ccccc3[N+](=O)[O-])CC2)C(=O)c2ccccc21	–	inactive
CCOc1cc(C2Nc3cccc4cccc(c34)N2)ccc1O	–	inactive
O=C(Oc1ccc(-c2cnc3ccccc3n2)cc1)c1cccc([N+](=O)[O-])c1	–	inactive
CCOC(=O)/C(=C\c1ccc(Cl)cc1)c1nc2sc(C)c(C)c2c(=O)[nH]1	–	inactive
CC(C)(C)c1nc(NCCN2CCOCC2)c2nnn(Cc3ccccc3Cl)c2n1	–	inactive
COc1cc(N=c2ssnc2Cl)cc(OC)c1	–	inactive
N/C(=N\OC(=O)CCC1CCCC1)c1ccncc1	inactive	–
CSc1n[nH]c2nc3c(c(=O)n12)C1(CCCC1)Cc1ccccc1-3	inactive	–
CC(C)n1nnnc1SCC(=O)N1CCN(C(=O)c2ccco2)CC1	–	inactive
O=[N+]([O-])c1ccc(N/N=C/c2ccc(O)c(O)c2O)c(S(=O)(=O)N2CCOCC2)c1	–	inactive
COc1ccccc1NC(=O)CSc1nnc(-c2ccco2)n1Cc1ccco1	–	inactive
Cn1cccc1CC(=O)N/N=C\c1ccccc1	inactive	–
Cc1nnc(Sc2cc(NCCCO)c([N+](=O)[O-])c3nonc23)s1	–	inactive
